US10590143B2, “Herbicidally active (alkynyl-phenyl)-substituted cyclic dione compounds and derivatives thereof” (Syngenta Limited, priority 2013, dated 2020)
Where two headings read alike, the source gives them in different places.

Key:
Assay type in all cases: in vivo
[1] = tested on: Zea mays (ZEAMX, corn, maize, e.g. volunteer corn); assay: Biological Example 1 glasshouse assay for herbicidal activity; conditions: Zea mays, 312 h, 13 days after application, read-out: percentage phytotoxicity ZEAMX
Description: (§1) Seeds of a variety of test plant species were sown in standard soil** in pots. After cultivation for one day (pre-emergence) or after 8 days cultivation (post-emergence) under controlled conditions in a glasshouse (at 24/16° C., day/night; 14 hours light; 65% humidity), the plants were sprayed with an aqueous spray solution derived from the formulation of the technical active ingredient (the test herbicide) in acetone/water (50:50) solution containing 0.5% Tween 20 (polyoxyethylene sorbitan monolaurate, CAS Reg. No. 9005-64-5). The test plants were then grown on under controlled conditions in a glasshouse (at 24/16° C., day/night; 14 hours light; 65% humidity) and watered twice daily. 13 Days after application of the test herbicide, for pre- and post-emergence, the test was evaluated visually for percentage phytotoxicity to each plant (where 100%=total damage to plant; 0%=no damage to plant). Generally, each test herbicide is only tested on 1 plant per plant species for each application rate tested and for each application timing. **The “standard soil” in Biological Example 1 is usually a “sand” or “sandy loam” type of soil.
(§2) Dicotyledonous weeds: ABUTH=Abutilon theophrasti; AMARE=Amaranthus retroflexus. Grassy monocotyledonous weeds: SETFA=Setaria faberi; ALOMY=Alopecurus myosuroides; ECHCG=Echinochloa crus-galli; ZEAMX=Zea mays (corn, maize, e.g. volunteer corn).

[2] = tested on: Echinochloa crus-galli (ECHCG); assay: as above; conditions: Echinochloa crus-galli, 312 h, 13 days after application, read-out: percentage phytotoxicity ECHCG
Description: as §1, §2

[3] = tested on: Amaranthus retroflexus (AMARE); assay: as above; conditions: Amaranthus retroflexus, 312 h, 13 days after application, read-out: percentage phytotoxicity AMARE
Description: as §1, §2

Setaria faberi (SETFA) [4] = assay: as above; conditions: 312 h, 13 days after application, read-out: percentage phytotoxicity SETFA
Description: as §1, §2

[5] = tested on: Abutilon theophrasti (ABUTH); assay: as above; conditions: 312 h, 13 days after application, read-out: percentage phytotoxicity ABUTH
Description: as §1, §2

[6] = tested on: Alopecurus myosuroides (ALOMY); assay: as above; conditions: 312 h, 13 days after application, read-out: percentage phytotoxicity ALOMY
Description: as §1, §2

[7] = tested on: Echinochloa crus-galli (ECHCG); assay: Biological Example 2 glasshouse assay for herbicidal activity; conditions: Echinochloa crus-galli, post-emergence, 360 h, 30 g/ha, 14 or 15 DAA, 0.2% v/v X-77, read-out: percentage phytotoxicity ECHCG
Description: (§3) Seeds of a variety of monocotyledonous and dicotyledonous test plants are sown in standard soil in pots. The plants are cultivated for one day (for pre-emergence) or for about 12 days (range=10-13 days) (for post-emergence) under controlled conditions in a glasshouse (warm climate species at 24/18° C., cool climate species at 20/16° C., both at day/night; 16 hours light; 65% humidity).
(§4) An “instant formulation”, known as the “IF50”, containing 50 g/litre (i.e. 5% w/v) of the “technical” (i.e. unformulated) active ingredient is prepared by dissolving the active ingredient in a mixture of organic solvents and emulsifier, details of which are provided in the Table below. This IF50 is then mixed with a small, variable amount of acetone to aid dissolution, before addition of a 0.2% v/v aqueous solution of the adjuvant X-77 (which is a mixture of alkyl aryl polyoxyethylene glycols and free fatty acids in isopropanol, CAS Registry number 11097-66-8), as the aqueous diluent, to form an aqueous spray solution which contains a predetermined concentration of the active ingredient (which varies depending on the application rate of the active ingredient to the plants) and 0.2% v/v of the adjuvant X-77. This aqueous spray solution is then sprayed onto the plants, after one day's cultivation (for pre-emergence) or after about 12 days' cultivation (for post-emergence).
(§5) The test plants are then grown on, in a glasshouse (greenhouse) under controlled conditions (at either 24/18° C. or 20/16° C. (day/night) as mentioned above; 16 hours light; 65% humidity) and are watered twice daily. Either 14 or 15 days after application of the herbicide (14 or 15 DAA) (for post-emergence), or 20 days after application of the herbicide (20 DAA) (for pre-emergence), the test plants are evaluated visually, and an assessed percentage phytotoxicity score is given for each herbicidal application on each plant species (where 100%=total damage to plant; 0%=no damage to plant).
(§6) Some of the typical test plants are as follows: • Cool climate crop plants: Triticum aestivum (TRZAW, winter wheat), Brassica napus (BRSNN, rape, also called oilseed rape or rapeseed), Beta vulgaris (BEAVA, sugarbeet). • Warm climate crop plants: Glycine max (GLXMA, soybean). • Cool climate (“cool season”) grassy monocotyledonous weeds: Alopecurus myosuroides (ALOMY), Avena fatua (AVEFA), Lolium perenne (LOLPE), Poa annua (POAAN), Bromus tectorum (BROTE). • Warm climate (“warm season”) grassy monocotyledonous weeds: Setaria faberi (SETFA), SORVU (Sorghum bicolor (L.) Moench ssp. Bicolor, or Sorghum vulgare Pers.), Digitaria sanguinalis (DIGSA), Echinochloa crus-galli (ECHCG), Brachiaria plantaginea (BRAPL); Zea mays (ZEAMX, corn, maize, e.g. volunteer corn).

[8] = tested on: Digitaria sanguinalis (DIGSA); assay: as above; conditions: post-emergence, 360 h, 30 g/ha, 14 or 15 DAA, 0.2% v/v X-77, read-out: percentage phytotoxicity DIGSA
Description: as §3, §4, §5, §6

[9] = tested on: Glycine max (GLXMA, soybean); assay: as above; conditions: post-emergence, 360 h, 30 g/ha, 14 or 15 DAA, 0.2% v/v X-77, read-out: percentage phytotoxicity GLXMA
Description: as §3, §4, §5, §6

[10] = tested on: Brachiaria plantaginea (BRAPL); assay: as above; conditions: Urochloa plantaginea, post-emergence, 360 h, 30 g/ha, 14 or 15 DAA, 0.2% v/v X-77, read-out: percentage phytotoxicity BRAPL
Description: as §3, §4, §5, §6

Setaria faberi (SETFA) [11] = assay: as above; conditions: post-emergence, 360 h, 30 g/ha, 14 or 15 DAA, 0.2% v/v X-77, read-out: percentage phytotoxicity SETFA
Description: as §3, §4, §5, §6

[12] = tested on: Triticum aestivum (TRZAW, winter wheat); assay: as above; conditions: post-emergence, 360 h, 30 g/ha, 14 or 15 DAA, 0.2% v/v X-77, read-out: percentage phytotoxicity TRZAW
Description: as §3, §4, §5, §6

[13] = tested on: Brassica napus (BRSNN, rape); assay: as above; conditions: Brassica napus, 360 h; post-emergence, 30 g/ha, 14 or 15 DAA, 0.2% v/v X-77; read-out: percentage phytotoxicity BRSNN
Description: as §3, §4, §5, §6

Avena fatua (AVEFA) = assay: as above; conditions: post-emergence, 360 h, 30 g/ha, 14 or 15 DAA, 0.2% v/v X-77, read-out: percentage phytotoxicity AVEFA
Description: as §3, §4, §5, §6

Lolium perenne (LOLPE) = assay: as above; conditions: post-emergence, 30 g/ha, 14 or 15 DAA; for pest or weed control at 30 g/ha: Lolium perenne, 360 h, 0.2% v/v X-77, read-out: percentage phytotoxicity LOLPE
Description: as §3, §4, §5, §6

[14] = tested on: Alopecurus myosuroides (ALOMY); assay: as above; conditions: post-emergence, 360 h, 30 g/ha, 14 or 15 DAA, 0.2% v/v X-77, read-out: percentage phytotoxicity ALOMY
Description: as §3, §4, §5, §6

[15] = tested on: Zea mays (ZEAMX, corn, maize, e.g. volunteer corn); assay: as above; conditions: Zea mays, post-emergence, 360 h, 30 g/ha, 14 or 15 DAA, 0.2% v/v X-77, read-out: percentage phytotoxicity ZEAMX
Description: as §3, §4, §5, §6

[16] = tested on: SORVU (Sorghum bicolor (L.) Moench ssp. Bicolor, or Sorghum vulgare Pers.); assay: as above; conditions: post-emergence, 360 h, 30 g/ha, 14 or 15 DAA, 0.2% v/v X-77, read-out: percentage phytotoxicity SORVU
Description: as §3, §4, §5, §6

[17] = tested on: Beta vulgaris (BEAVA, sugarbeet); assay: as above; conditions: post-emergence, 360 h, 30 g/ha, 14 or 15 DAA, 0.2% v/v X-77, read-out: percentage phytotoxicity BEAVA
Description: as §3, §4, §5, §6

[18] = post-emergence, post-emergence, 8 g/ha

For CC#Cc1cc(F)c(C2=C(OC(=O)OCC)C3CCC(C3)C2=O)c(OC)c1 (stereo not drawn) [Compound P2], the pest or weed control at 8 g/ha [1, 18] was 90%, the pest or weed control at 30 g/ha ([1]; post-emergence, post-emergence) was 100% and the pest or weed control at 250 g/ha ([1]; post-emergence, post-emergence) was 100%. For the same molecule, the pest or weed control at 30 g/ha ([1]; pre-emergence, pre-emergence) was 90%, the pest or weed control at 250 g/ha ([1]; pre-emergence, pre-emergence) was 100% and the pest or weed control at 8 g/ha [2, 18] was 90%. It also gave a pest or weed control at 30 g/ha ([2]; post-emergence, post-emergence) of 100%, a pest or weed control at 250 g/ha ([2]; post-emergence, post-emergence) of 100% and a pest or weed control at 30 g/ha ([2]; pre-emergence, pre-emergence) of 80%. The pest or weed control at 250 g/ha ([2]; pre-emergence, pre-emergence) was 100%, the pest or weed control at 8 g/ha [3, 18] was 20% and the pest or weed control at 30 g/ha ([3]; post-emergence, post-emergence) was 20%. For the same molecule, the pest or weed control at 250 g/ha ([3]; post-emergence, post-emergence) was 40%, the pest or weed control at 30 g/ha ([3]; pre-emergence, pre-emergence) was 40% and the pest or weed control at 250 g/ha ([3]; pre-emergence, pre-emergence) was 70%. The pest or weed control at 8 g/ha (Setaria faberi (SETFA) [4]; [18]) was 60%, the pest or weed control at 30 g/ha (Setaria faberi (SETFA) [4]; post-emergence, post-emergence) was 90% and the pest or weed control at 250 g/ha (Setaria faberi (SETFA) [4]; post-emergence, post-emergence) was 100%. The pest or weed control at 30 g/ha (Setaria faberi (SETFA) [4]; pre-emergence, pre-emergence) was 50%, the pest or weed control at 250 g/ha (Setaria faberi (SETFA) [4]; pre-emergence, pre-emergence) was 90% and the pest or weed control at 8 g/ha [5, 18] was 10%. It also gave a pest or weed control at 30 g/ha ([5]; post-emergence, post-emergence) of 30%, a pest or weed control at 250 g/ha ([5]; post-emergence, post-emergence) of 80% and a pest or weed control at 30 g/ha ([5]; pre-emergence, pre-emergence) of 20%. For the same molecule, the pest or weed control at 250 g/ha ([5]; pre-emergence, pre-emergence) was 60%, the pest or weed control at 8 g/ha ([6]; post-emergence, 8 g/ha) was 70% and the pest or weed control at 30 g/ha ([6]; post-emergence) was 90%. The pest or weed control at 250 g/ha ([6]; post-emergence) was 90%, the pest or weed control at 30 g/ha ([6]; pre-emergence) was 80% and the pest or weed control at 250 g/ha ([6]; pre-emergence) was 100%.
Work on Cc1cc(C)c(C2C(=O)C3CCC(C3)C2=O)c(C)c1 (stereo not drawn) [Compound X9, reference compound] yielded a pest or weed control at 30 g/ha [7] of 20%, a pest or weed control at 30 g/ha [8] of 30% and a plant injury at 30 g/ha [9] of 0%. The pest or weed control at 30 g/ha [10] was 70%, the pest or weed control at 30 g/ha (Setaria faberi (SETFA) [11]) was 70% and the plant injury at 30 g/ha [12] was 0%. The plant injury at 30 g/ha [13] was 0%, the pest or weed control at 30 g/ha (Avena fatua (AVEFA)) was 0% and the pest or weed control at 30 g/ha (Lolium perenne (LOLPE)) was 0%. It also gave a pest or weed control at 30 g/ha [14] of 0%.
In the case of CCc1cc(C)cc(CC)c1C1C(=O)C2CCC(C2)C1=O (stereo not drawn) [Compound X10, reference compound], the pest or weed control at 30 g/ha [15] is reported as 80%, the pest or weed control at 30 g/ha [8] is reported as 100% and the plant injury at 30 g/ha [9] is reported as 0%. The pest or weed control at 30 g/ha [10] was 80%, the pest or weed control at 30 g/ha (Setaria faberi (SETFA) [11]) was 100% and the plant injury at 30 g/ha [13] was 0%. The pest or weed control at 30 g/ha (Lolium perenne (LOLPE)) was 70%, the “percentage phytotoxicity LOLPE” value (Lolium perenne (LOLPE); 0.2% v/v X-77) was 70% and the pest or weed control at 30 g/ha [16] was 60%. It also gave a plant injury at 30 g/ha [17] of 0% and a pest or weed control at 30 g/ha [14] of 80%.
